Consider five compounds from ChEMBL document CHEMBL5518236, “Discovery of Clinical Candidate AZD5462, a Selective Oral Allosteric RXFP1 Agonist for Treatment of Heart Failure” (J Med Chem, 2024).

The structures appear in SMILES notation.

System in one data set: not listed separately
Briefly: Metabolic stability in human liver microsomes assessed as intrinsic clearance at 1 uM measured upto 30 mins by LC-MS/MS analysis. The data set is classed as ADME, Microsome. Particulars: read-out: CLH. (In general: Microsomes from liver hold many membrane-bound enzymes, among them those of drug oxidation.)
Turning to `COc1ccc(O[C@H]2CC[C@@](C)(C(=O)O)CC2)cc1C(=O)N[C@@H]1[C@H]2CC[C@H](C2)[C@@H]1C(=O)NCC1(C)CCC1`, the microsomal CLint at 1 µM came out at 36 µL/min/mg.

As to `COc1c(C#N)cc(O[C@H]2CC[C@@](C)(C(=O)O)CC2)cc1C(=O)N[C@@H]1[C@H]2CC[C@H](C2)[C@@H]1C(=O)NCC1(C)CCC1`, the microsomal CLint at 1 µM amounted to 50 µL/min/mg.

Consider `CC1(CNC(=O)[C@H]2[C@@H]3CC[C@@H](C3)[C@H]2NC(=O)c2cc(O[C@H]3CC[C@@](C)(C(=O)O)CC3)ccn2)CCC1`, for which the microsomal CLint at 1 µM was determined as 29 µL/min/mg.

As to `COc1cc(F)c(O[C@H]2CC[C@@](C)(C(=O)O)CC2)cc1C(=O)N[C@@H]1[C@H]2CC[C@H](C2)[C@@H]1C(=O)NCC(C)(C)C(F)(F)F`, the microsomal CLint at 1 µM stood at 13 µL/min/mg.

With `CC1(CNC(=O)[C@H]2[C@@H]3CC[C@@H](C3)[C@H]2N2CCc3cc(F)c(O[C@H]4CC[C@@](C)(C(=O)O)CC4)cc3C2=O)CCC1`, the microsomal CLint at 1 µM is 44 µL/min/mg.

The target in the next data set is T1, Relaxin receptor 1 (Homo sapiens, UniProt Q9HBX9).
T1 sequence (Q9HBX9 whole entry): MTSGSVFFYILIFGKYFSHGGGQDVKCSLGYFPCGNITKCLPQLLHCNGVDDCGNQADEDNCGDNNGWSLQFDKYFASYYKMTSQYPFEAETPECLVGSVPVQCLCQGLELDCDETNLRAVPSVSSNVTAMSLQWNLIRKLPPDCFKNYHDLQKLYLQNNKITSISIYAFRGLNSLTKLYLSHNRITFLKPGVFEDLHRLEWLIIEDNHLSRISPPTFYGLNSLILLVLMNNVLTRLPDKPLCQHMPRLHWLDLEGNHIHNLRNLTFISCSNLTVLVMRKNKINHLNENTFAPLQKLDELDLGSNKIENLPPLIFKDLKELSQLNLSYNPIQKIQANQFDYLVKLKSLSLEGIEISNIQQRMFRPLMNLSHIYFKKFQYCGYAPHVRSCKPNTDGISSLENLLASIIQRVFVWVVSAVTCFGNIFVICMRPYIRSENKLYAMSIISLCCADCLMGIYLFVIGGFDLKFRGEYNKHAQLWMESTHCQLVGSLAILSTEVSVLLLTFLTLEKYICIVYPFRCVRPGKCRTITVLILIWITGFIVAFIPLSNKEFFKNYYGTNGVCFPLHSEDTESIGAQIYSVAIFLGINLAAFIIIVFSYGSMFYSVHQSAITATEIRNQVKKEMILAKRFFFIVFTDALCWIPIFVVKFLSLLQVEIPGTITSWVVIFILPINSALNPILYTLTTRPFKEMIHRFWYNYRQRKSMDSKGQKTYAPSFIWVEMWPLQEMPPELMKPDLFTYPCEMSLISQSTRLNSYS
Settings: not given
Broadly, the EC50 is the concentration needed to bring the measured effect to its halfway point. A low value points to an effect from little substance. `COc1ccc(O[C@H]2CC[C@@](C)(C(=O)O)CC2)cc1C(=O)N[C@@H]1[C@H]2CC[C@H](C2)[C@@H]1C(=O)NCC1(C)CCC1` showed an EC50 of 100 nM.

In turn, `COc1c(C#N)cc(O[C@H]2CC[C@@](C)(C(=O)O)CC2)cc1C(=O)N[C@@H]1[C@H]2CC[C@H](C2)[C@@H]1C(=O)NCC1(C)CCC1` gave an EC50 of 79.4 nM.

For `CC1(CNC(=O)[C@H]2[C@@H]3CC[C@@H](C3)[C@H]2NC(=O)c2cc(O[C@H]3CC[C@@](C)(C(=O)O)CC3)ccn2)CCC1`, the EC50 was 1580 nM.

In turn, `CC1(CNC(=O)[C@H]2[C@@H]3CC[C@@H](C3)[C@H]2N2CCc3cc(F)c(O[C@H]4CC[C@@](C)(C(=O)O)CC4)cc3C2=O)CCC1` showed an EC50 of 1580 nM.

System in a further data set: not listed separately
Briefly: Metabolic stability in human hepatocytes assessed as intrinsic clearance measured per 10^6 viable cells/ml at 1 uM measured upto 120 mins by LC-MS/MS analysis. The conditions noted are these: read-out: CLH. The data set is classed as ADME, cell-based, Hepatocyte.
Regarding `COc1ccc(O[C@H]2CC[C@@](C)(C(=O)O)CC2)cc1C(=O)N[C@@H]1[C@H]2CC[C@H](C2)[C@@H]1C(=O)NCC1(C)CCC1`, the hepatocyte CLint at 1 µM was determined as 6.1 µL/min/1e6 cells.

With `COc1c(C#N)cc(O[C@H]2CC[C@@](C)(C(=O)O)CC2)cc1C(=O)N[C@@H]1[C@H]2CC[C@H](C2)[C@@H]1C(=O)NCC1(C)CCC1`, the hepatocyte CLint at 1 µM worked out at 11 µL/min/1e6 cells.

Turning to `CC1(CNC(=O)[C@H]2[C@@H]3CC[C@@H](C3)[C@H]2NC(=O)c2cc(O[C@H]3CC[C@@](C)(C(=O)O)CC3)ccn2)CCC1`, the hepatocyte CLint at 1 µM stood at 2.3 µL/min/1e6 cells.

As to `COc1cc(F)c(O[C@H]2CC[C@@](C)(C(=O)O)CC2)cc1C(=O)N[C@@H]1[C@H]2CC[C@H](C2)[C@@H]1C(=O)NCC(C)(C)C(F)(F)F`, the hepatocyte CLint at 1 µM came to 4.2 µL/min/1e6 cells.

For the compound `CC1(CNC(=O)[C@H]2[C@@H]3CC[C@@H](C3)[C@H]2N2CCc3cc(F)c(O[C@H]4CC[C@@](C)(C(=O)O)CC4)cc3C2=O)CCC1`, the hepatocyte CLint at 1 µM is 2.1 µL/min/1e6 cells.

System in a further data set: not listed separately
In words: Octanol/water partition coefficient, logD of the compound at pH 7.4 by shake flask method. The data set is classed as physicochemical.
Settings: not given
The logD is the decadic logarithm of the distribution of all forms, ionised or not, between an organic phase and buffer at a given pH. The low end stands for lower lipophilicity, the high end for higher lipophilicity. The compound `COc1ccc(O[C@H]2CC[C@@](C)(C(=O)O)CC2)cc1C(=O)N[C@@H]1[C@H]2CC[C@H](C2)[C@@H]1C(=O)NCC1(C)CCC1` gave a logD of 2.9.

Take `COc1c(C#N)cc(O[C@H]2CC[C@@](C)(C(=O)O)CC2)cc1C(=O)N[C@@H]1[C@H]2CC[C@H](C2)[C@@H]1C(=O)NCC1(C)CCC1`: the pH-dependent lipophilicity (logD) was found to be 2.9.

`CC1(CNC(=O)[C@H]2[C@@H]3CC[C@@H](C3)[C@H]2NC(=O)c2cc(O[C@H]3CC[C@@](C)(C(=O)O)CC3)ccn2)CCC1` came in with a logD of 2.5.

Regarding `COc1cc(F)c(O[C@H]2CC[C@@](C)(C(=O)O)CC2)cc1C(=O)N[C@@H]1[C@H]2CC[C@H](C2)[C@@H]1C(=O)NCC(C)(C)C(F)(F)F`, the logD is 3.19.

System in the next data set: not listed separately
In words: Metabolic stability in human liver microsomes assessed as unbound intrinsic clearance at 1 uM measured upto 30 mins by LC-MS/MS analysis. The class given is ADME, Microsome. The conditions noted are these: 0.5 h.
For the compound `COc1ccc(O[C@H]2CC[C@@](C)(C(=O)O)CC2)cc1C(=O)N[C@@H]1[C@H]2CC[C@H](C2)[C@@H]1C(=O)NCC1(C)CCC1`, the CL free was 46 µL/min/mg.

On to `COc1c(C#N)cc(O[C@H]2CC[C@@](C)(C(=O)O)CC2)cc1C(=O)N[C@@H]1[C@H]2CC[C@H](C2)[C@@H]1C(=O)NCC1(C)CCC1`, for which the CL free is 69 µL/min/mg.

As for `CC1(CNC(=O)[C@H]2[C@@H]3CC[C@@H](C3)[C@H]2NC(=O)c2cc(O[C@H]3CC[C@@](C)(C(=O)O)CC3)ccn2)CCC1`, the CL free amounted to 35 µL/min/mg.

For the compound `COc1cc(F)c(O[C@H]2CC[C@@](C)(C(=O)O)CC2)cc1C(=O)N[C@@H]1[C@H]2CC[C@H](C2)[C@@H]1C(=O)NCC(C)(C)C(F)(F)F`, the CL free is 23 µL/min/mg.

Regarding `CC1(CNC(=O)[C@H]2[C@@H]3CC[C@@H](C3)[C@H]2N2CCc3cc(F)c(O[C@H]4CC[C@@](C)(C(=O)O)CC4)cc3C2=O)CCC1`, the CL free was found to be 70 µL/min/mg.

System in a further data set: not listed separately
Briefly: Apparent permeability across apical to basolateral side in human Caco-2 cells at pH 7.4 by LC-MS/MS analysis. The data set is classed as ADME, cell-based. The conditions noted are these: Caco-2, pH 7.4. On the technique in general: Passage across Caco-2 layers is used to estimate intestinal permeability.
Usually Papp A→B stands for how fast a substance crosses the layer from the apical side. With `COc1cc(F)c(O[C@H]2CC[C@@](C)(C(=O)O)CC2)cc1C(=O)N[C@@H]1[C@H]2CC[C@H](C2)[C@@H]1C(=O)NCC(C)(C)C(F)(F)F`, the Papp A→B was 66 ×10⁻⁶ cm/s.

System in the next data set: not listed separately
Briefly: Metabolic stability in human hepatocytes assessed as unbound intrinsic clearance measured per 10^6 viable cells/ml at 1 uM measured upto 120 mins by LC-MS/MS analysis. The class given is ADME, cell-based, Hepatocyte. Particulars: 2 h.
Take `COc1ccc(O[C@H]2CC[C@@](C)(C(=O)O)CC2)cc1C(=O)N[C@@H]1[C@H]2CC[C@H](C2)[C@@H]1C(=O)NCC1(C)CCC1`: the CL free was determined as 10 µL/min.

For the compound `COc1c(C#N)cc(O[C@H]2CC[C@@](C)(C(=O)O)CC2)cc1C(=O)N[C@@H]1[C@H]2CC[C@H](C2)[C@@H]1C(=O)NCC1(C)CCC1`, the CL free was determined as 16 µL/min.

As for `CC1(CNC(=O)[C@H]2[C@@H]3CC[C@@H](C3)[C@H]2NC(=O)c2cc(O[C@H]3CC[C@@](C)(C(=O)O)CC3)ccn2)CCC1`, the CL free came to 3.3 µL/min.

As to `COc1cc(F)c(O[C@H]2CC[C@@](C)(C(=O)O)CC2)cc1C(=O)N[C@@H]1[C@H]2CC[C@H](C2)[C@@H]1C(=O)NCC(C)(C)C(F)(F)F`, the CL free turned out to be 8.6 µL/min.

For `CC1(CNC(=O)[C@H]2[C@@H]3CC[C@@H](C3)[C@H]2N2CCc3cc(F)c(O[C@H]4CC[C@@](C)(C(=O)O)CC4)cc3C2=O)CCC1`, the CL free is 3 µL/min.
